From patent US8062653B2, “Controlled release of nitric oxide and drugs from functionalized macromers and oligomers” (Bezwada Biomedical, LLC, priority 2009, dated 2011)

Columns and labels:
[1] = prior-art NO-releasing small molecules; cited from earlier work

Row | melting point [°C] | Compound | lifetime in physiological solution [1]
1 | 100 to 102 | O=C(CCCCCO[N+](=O)[O-])Oc1ccc(-c2coc3cc(OC(=O)CCCCCO[N+](=O)[O-])ccc3c2=O)cc1 | 
2 |  | CC(C)(SN=O)C(N)C(=O)O (racemic) [S-nitroso-D,L-penicillamine] | no more than about an hour
3 |  | N[C@@H](CSN=O)C(=O)O [S-nitrosocysteine] | no more than about an hour
